# Key:
# Format in all cases: functional
# Tetranychus urticae [1] = assay: Insecticidal activity against acaricide-susceptible female Tetranychus urticae KST (two-spotted spider mite) in kidney bean assessed as mortality in 3 cm disks measured after 24 hr exposure by vapour-phase mortality bioassay
# Tetranychus urticae [2] = assay: Insecticidal activity against fenpropathrin-resistant female Tetranychus urticae FRT-53 (two-spotted spider mite) in kidney bean assessed as mortality in 3 cm disks measured after 24 hr exposure by vapour-phase mortality bioassay
# Tetranychus urticae [3] = assay: Insecticidal activity against abamectin-resistant female Tetranychus urticae ART-53 (two-spotted spider mite) in kidney bean assessed as mortality in 3 cm disks measured after 24 hr exposure by vapour-phase mortality bioassay
# Tetranychus urticae [4] = assay: Insecticidal activity against pyridaben-resistant female Tetranychus urticae PRT-53 (two-spotted spider mite) in kidney bean assessed as mortality in 3 cm disks measured after 24 hr exposure by vapour-phase mortality bioassay
# Tetranychus urticae [5] = assay: Insecticidal activity against chlorfenapyr-resistant female Tetranychus urticae CRT-53 (two-spotted spider mite) in kidney bean assessed as mortality in 3 cm disks measured after 24 hr exposure by vapour-phase mortality bioassay
Compound,LC50 (Tetranychus urticae [1]),LC50 (Tetranychus urticae [2]),LC50 (Tetranychus urticae [3]),LC50 (Tetranychus urticae [4]),LC50 (Tetranychus urticae [5])
CC(C)=CCCC(C)CCO (centres undefined) [CITRONELLOL],21.7 microg/cm3,21.4 microg/cm3,26 microg/cm3,25.9 microg/cm3,26.1 microg/cm3
CC1=CC[C@@](O)(C(C)C)CC1,36.9 microg/cm3,40.8 microg/cm3,38.7 microg/cm3,43.7 microg/cm3,36.7 microg/cm3
CC1CCC(C(C)C)C(O)C1 (centres undefined) [MENTHOL],12.9 microg/cm3,12.8 microg/cm3,13.7 microg/cm3,12.9 microg/cm3,13 microg/cm3
CC(C)=CCC/C(C)=C/CO [GERANIOL],32.1 microg/cm3,26.8 microg/cm3,33.3 microg/cm3,33.2 microg/cm3,32 microg/cm3
C=C[C@]1(C)CC[C@@H](C(C)(C)O)O1 [(E)-LINALOOL OXIDE],>500 microg/cm3,,,,
CC1=CC=C(C(C)C)CC1,260 microg/cm3,263.3 microg/cm3,277.5 microg/cm3,253.2 microg/cm3,293.9 microg/cm3
C=C(C)[C@H]1CC=C(C)CC1 [D-LIMONENE],246.7 microg/cm3,284.3 microg/cm3,277.6 microg/cm3,288.5 microg/cm3,333.3 microg/cm3
C=C1CC/C=C(\C)CC[C@@H]2[C@@H]1CC2(C)C [BETA-CARYOPHYLLENE],47.6 microg/cm3,47.7 microg/cm3,53.4 microg/cm3,44.7 microg/cm3,49.1 microg/cm3
CC1(C)C2CCC1(C)C(O)C2 (centres undefined) [BORNEOL],>500 microg/cm3,,,,
Cc1ccc(C(C)C)cc1 [P-CYMENE],231.4 microg/cm3,238.9 microg/cm3,265.2 microg/cm3,243.3 microg/cm3,213.5 microg/cm3
C=C(C)[C@@H]1CC[C@@H](C)C[C@H]1O [ISOPULEGOL],30.3 microg/cm3,30.1 microg/cm3,29 microg/cm3,27.7 microg/cm3,30.7 microg/cm3
C=C1CC[C@H]2O[C@]2(C)CC[C@@H]2[C@@H]1CC2(C)C [(-)-CARYOPHYLLENE OXIDE],>500 microg/cm3,,,,
C=CC(=C)CCC=C(C)C [MYRCENE],349.8 microg/cm3,369.3 microg/cm3,384.2 microg/cm3,377.4 microg/cm3,370.6 microg/cm3
CC12CCC(CC1)C(C)(C)O2 [EUCALYPTOL],275 microg/cm3,249 microg/cm3,256.3 microg/cm3,263.7 microg/cm3,298.4 microg/cm3
CC(=O)OCCC(C)CCC=C(C)C (centres undefined) [CITRONELLYL ACETATE],16.8 microg/cm3,16.5 microg/cm3,12.8 microg/cm3,17.4 microg/cm3,16.7 microg/cm3
CC1=CC[C@H](C(C)C)C=C1,299.7 microg/cm3,360.6 microg/cm3,354.7 microg/cm3,340.7 microg/cm3,380.1 microg/cm3
CC(=O)OC/C=C(\C)CCC=C(C)C [GERANYL ACETATE],24.5 microg/cm3,26.7 microg/cm3,24 microg/cm3,24.5 microg/cm3,25.3 microg/cm3
C=CCc1ccc(O)c(OC)c1 [EUGENOL],24.6 microg/cm3,28.6 microg/cm3,27.8 microg/cm3,31.7 microg/cm3,25.9 microg/cm3
CC(C)=CCC[C@@H](C)CC=O [CITRONELLAL],33.9 microg/cm3,34 microg/cm3,34.9 microg/cm3,34.9 microg/cm3,34.8 microg/cm3
C=CC(C)(O)CCC=C(C)C (centres undefined) [LINALOOL],54.6 microg/cm3,57.3 microg/cm3,62.4 microg/cm3,55 microg/cm3,58.9 microg/cm3
C=C1CC[C@@H]2[C@@H]([C@@H]3[C@H](C)CC[C@@H]13)C2(C)C [(+)-AROMADENDRENE],>500 microg/cm3,,,,
C=C/C(C)=C/CC=C(C)C [OCIMENE],255 microg/cm3,289.6 microg/cm3,281.3 microg/cm3,260.2 microg/cm3,277.2 microg/cm3

# — ChEMBL document CHEMBL3046484, “Fumigant toxicity of lemon eucalyptus oil constituents to acaricide-susceptible and acaricide-resistant Tetranychus urticae” (2011)
